Test system: fully committed Th1 cells
Test: Secondary repolarisation of sorted IFN-γ (eYFP+) Th1 cells under Th1 conditions in the presence of RAR inhibitor or vehicle
Format: cell-based, mouse
Conditions: IFN-γ (eYFP+) Th1 cells sorted day 7, restimulated under Th1 conditions for 5 days with LE540 (1 μM) vs vehicle (DMSO)
Protocol: Experimental conditions were as follows. Naïve CD4^+CD25^negCD44^loCD62L^hi T-cells were isolated by cell sorting by FACSAria (BD) after enrichment with a CD4^+ T-cell negative selection kit (Miltenyi Biotec). T-cell depleted splenocytes were prepared using a CD3^+ microbead selection kit (Miltenyi Biotec) followed by irradiation at 3000 rad. Naïve CD4+ T-cells were cultured for 3 days with irradiated T-cell-depleted splenocytes at a ratio of 1:5 in the presence of 5 μg/ml of anti-CD3 (145-2C11) under Th0 cell conditions (IL-2 100 IU/ml, anti-IL-4 (11B11) and anti-IFN-γ (XMG 1.2), 10 μg/ml each); Th1 cell conditions (100 IU/ml of IL-2, 10 ng/ml of IL-12, and anti-IL-4); Th2 cell conditions (100 IU/ml of IL-2, 10 ng/ml of IL-4, anti-IL-12 (C17.8), and anti-IFN-γ (XMG 1.2); or Th17 cell conditions, 5 ng/ml TGFβ, 20 ng/ml IL-6, 10 ng/ml IL-1β, anti-IL-4, and anti-IFN-γ). Cells were expanded for an additional 3-4 days. Where indicated, 10 ng/ml IFN-γ or 10 μg/ml anti-IFN-γ was added. In secondary repolarisation assays, where specified, LE540 (1 μM) or DMSO (vehicle control) was added to the media. Cytokines were from R&D. Anti-CD3 was from BioXcell and other antibodies were from BD Biosciences. All cell cultures were performed in complete RPMI containing 10% fetal bovine serum (FBS), 55 µM β-mercaptoethanol, HEPES, non-essential amino acids, glutamine, penicillin and streptomycin.
For analysis of cytokine production, cells were restimulated with 100 ng/ml phorbol 12-myristate 13-acetate (PMA) and 500 ng/ml ionomycin in the presence of monensin for 4-5 h at 37° C. in a tissue culture incubator. Cell surface staining was carried out in PBS with 2% FBS. For live cell analysis or cell sorting, dead cells were excluded by staining with SYTOX blue (Invitrogen). […] Data were collected with a LSR Fortessa (BD) and results were analyzed with FlowJo software (Tree Star). […]

CN1c2cc3c(cc2N=C(c2ccc(C(=O)O)cc2)c2ccc4ccccc4c21)C(C)(C)CCC3(C)C [LE540]
Intracellular IFN-γ expression following PMA and ionomycin stimulation (FIG. 12B): modest reductions in IFN-γ expression
Intracellular expression of RORγt (flow cytometry, FIG. 4B): emergence of cells co-expressing RORγt
Intracellular expression of T-bet (flow cytometry, FIG. 4B): down-regulation of T-bet
